Paper PMC3473092 (Science (New York, N.Y.), 2011)
“Also recorded” adds a separate entry of the source. Read-outs that look alike come from different tables or passages of the source.

How the values were obtained:
Plasmodium berghei [1] = assay: P. berghei blood-stage mouse model, single oral dose; assay type: in vivo; settings: for average survival times: mice infected with P. berghei, single oral dose at 100 mg/kg
P. yoelii EEF = assay: P. yoelii liver-stage; assay type: cell-based, Plasmodium yoelii; settings: for Median parasite area: ±SD, DMSO control 160 to 180 μm^2, smallest size detected 9 μm^2; for IC50: Plasmodium yoelii, 48 h, read-out: P. yoelii EEF IC50; for efficacy when compound added 15 and 27 hours post-invasion: end-point 51 hpi, Fig. 2C; for activity against EEFs (in words): P. yoelii liver assay
[2] = system: P. falciparum W2 parasites; assay: Blood-stage SYBR green assay, P. falciparum W2; assay type: cell-based; settings: Plasmodium falciparum, W2, read-out: Blood IC50
HepG2-A16-CD81EGFP cells = assay: HepG2-A16-CD81EGFP inhibition; assay type: cell-based; settings: Homo sapiens, HepG2, read-out: HepG2 inhibition IC50
Plasmodium berghei [3] = settings: 100 mg/kg oral dose; cited from earlier work
[4] = system: P. falciparum blood stages; assay: P. falciparum blood stage cultures in vitro; assay type: cell-based, Plasmodium falciparum; settings: text b23, strain not given
P. berghei sporozoites = assay: Rodent malaria model of causal prophylactic treatment; assay type: in vivo, Plasmodium berghei; settings: for blood stage parasitemia in later blood smear examinations / in vivo bioluminescence signal of developing parasite: GNF179 15 mg/kg, atovaquone 2.5 mg/kg, treated at 6 hpi, Fig. 2D
[5] = system: strains having mutations making them resistant to atovaquone and pyrimethamine; assay: Cross-resistance with strains resistant to liver-stage drugs; assay type: cell-based; settings: Table S6
[6] = system: parasite protein biosynthesis; assay: Parasite protein biosynthesis inhibition; assay type: cell-based; settings: Fig. S4
[7] = mouse, in vivo, po
[8] = mouse
[9] = 15 p.o. mg/kg, 1–3 hours prior to sporozoite injection
[10] = 30 p.o. mg/kg, 1–3 hours prior to sporozoite injection
[11] = 5 p.o. mg/kg, 1–3 hours prior to sporozoite injection
[12] = 15 p.o. mg/kg, six hours after infection

## C[C@H]1[C@H](OC(=O)CCC(=O)O)O[C@@H]2O[C@@]3(C)CC[C@H]4[C@H](C)CC[C@@H]1[C@@]24OO3 [artesunate]
Plasmodium berghei [1]
  average survival times: 7 days

## CCCCCCCCCCOc1cc2c(O)c(C(=O)OCC)cnc2cc1OCC [Decoquinate]
P. yoelii EEF; 1 μM
  Median parasite area: 17.7±0.3 μm^2
P. yoelii EEF; 10 μM
  Median parasite area: 18.8±4.7 μm^2
P. yoelii EEF
  IC50: 0.16 ± 0.02 nM
[2]
  IC50: 0.25 ± 0.06 nM
HepG2-A16-CD81EGFP cells
  IC50: > 10000 nM

## CC[C@@H](C(=O)[C@@H](C)[C@@H](O)[C@H](C)CCc1ccc(C)c(O)c1C(=O)O)[C@H]1O[C@](CC)([C@H]2CC[C@](O)(CC)[C@H](C)O2)C[C@@H]1C [Lasalocid]
P. yoelii EEF; 1 μM
  efficacy when compound added 15 and 27 hours post-invasion: remained active later in EEF development
  Median parasite area: < 9 μm^2
P. yoelii EEF; 10 μM
  Median parasite area: < 9 μm^2
P. yoelii EEF
  activity against EEFs (in words): confirmed as active
  IC50: 37 ± 20 nM
[2]
  IC50: 50 ± 8 nM
HepG2-A16-CD81EGFP cells
  IC50: 3900 ± 1400 nM

## CCN(CC)CCCC(C)Nc1ccnc2cc(Cl)ccc12 (stereo not shown) [Chloroquine]
P. yoelii EEF; 1 μM
  Median parasite area: 65.4±9.5 μm^2
P. yoelii EEF; 10 μM
  Median parasite area: < 9 μm^2
P. yoelii EEF
  IC50: 1650 nM
Plasmodium berghei [1]
  average survival times: 12.5 days
[2]
  IC50: 84 ± 3 nM
HepG2-A16-CD81EGFP cells
  IC50: 1600 ± 300 nM

## C[C@H]1Cc2c([nH]c3cc(Cl)c(F)cc23)[C@@]2(N1)C(=O)Nc1ccc(Cl)cc12 [NITD609]
P. yoelii EEF
  activity against EEFs (in words): inactive
Plasmodium berghei [3]
  cure in a blood-stage animal model: fully curative
[4]
  potency against P. falciparum blood stages: ~ 1 nM
P. berghei sporozoites; [9]
  Average Survival (%): 0%
  Prepatent Period: 4.5 days
P. berghei sporozoites; [10]
  Average Survival (%): 0%
  Prepatent Period: 4.2 days

## O=C1C(O)=C([C@H]2CC[C@H](c3ccc(Cl)cc3)CC2)C(=O)c2ccccc21 [Atovaquone]
P. yoelii EEF; 1 μM
  efficacy when compound added 15 and 27 hours post-invasion: remained active later in EEF development
  Median parasite area: 18.2±1.0 μm^2
P. yoelii EEF; 10 μM
  Median parasite area: 18.6±1.0 μm^2
P. yoelii EEF
  activity against EEFs (in words): confirmed as active
  IC50: 9.4 ± 15 nM
[2]
  IC50: 2.2 ± 0.4 nM
HepG2-A16-CD81EGFP cells
  IC50: 9500 ± 2500 nM
P. berghei sporozoites; 2.5 p.o. mg/kg, 1–3 hours prior to sporozoite injection
  Average Survival (%): 100%
P. berghei sporozoites; 2.5 p.o. mg/kg, six hours after infection
  Average Survival (%): 100%
P. berghei sporozoites
  blood stage parasitemia in later blood smear examinations: no blood stage parasitemia was detected
  in vivo bioluminescence signal of developing parasite: No luminescence signal was detected

## CCc1nc(N)nc(N)c1-c1ccc(Cl)cc1 [Pyrimethamine]
P. yoelii EEF; 1 μM
  efficacy when compound added 15 and 27 hours post-invasion: the parasites grew to normal size
  Median parasite area: 31.1±0.7 μm^2
P. yoelii EEF; 10 μM
  Median parasite area: 29.6±2.0 μm^2
P. yoelii EEF
  activity against EEFs (in words): confirmed as active
  IC50: 2.4 ± 1.6 nM
[2]
  IC50: 15 ± 2 nM
HepG2-A16-CD81EGFP cells
  IC50: 6300 ± 3300 nM

## C[C@@H]1C[C@@H]([C@H](O)CC2CC(=O)NC(=O)C2)C(=O)[C@@H](C)C1 [Cycloheximide]
P. yoelii EEF; 1 μM
  Median parasite area: <9 μm^2
P. yoelii EEF; 10 μM
  Median parasite area: <9 μm^2
[2]
  IC50: 366 ± 69 nM
HepG2-A16-CD81EGFP cells
  IC50: 220 ± 100 nM

## GNF179
P. yoelii EEF; 1 μM
  efficacy when compound added 15 and 27 hours post-invasion: remained active later in EEF development
[4]
  potency against P. falciparum blood stages: 7 nM
[5]
  cross-resistance: no cross-resistance
Plasmodium berghei [1]; single 100 mg/kg oral dose
  mouse survival prolonged by an average of: 19 days
Plasmodium berghei [1]; single 100 mg/kg oral dose, mice
  reduction of Plasmodium berghei parasitemia levels: 99.7%
[6]
  inhibition of parasite protein biosynthesis: does not rapidly inhibit parasite protein biosynthesis
[7]; 15 mg/kg
  Cmax: 55 µM
[7]; 100 mg/kg
  Cmax: 193 µM
  half-life in liver: 7 to 9 h
P. berghei sporozoites; [11]
  Average Survival (%): 20%
  Prepatent Period: 4.2 days
P. berghei sporozoites; [9]
  Average Survival (%): 100%
P. berghei sporozoites; [12]
  Average Survival (%): 80%
  Prepatent Period: 6.2 days
P. berghei sporozoites; 20 p.o. mg/kg, 1–3 hours prior to sporozoite injection
  Average Survival (%): 100%
P. berghei sporozoites
  blood stage parasitemia in later blood smear examinations: no blood stage parasitemia was detected
  in vivo bioluminescence signal of developing parasite: No luminescence signal was detected
[8]; in vivo
  clearance CL: 22 mL/min/kg
  clearance as share of hepatic blood flow in mice: ~ 25%
  residence time MRT: 9 h
  steady-state volume of distribution Vss: 11.8 L/kg
  terminal half-life t1/2: 8.9 h
[8]; po
  in vivo oral bioavailability: 58%

## OC(c1cc(C(F)(F)F)nc2c(C(F)(F)F)cccc12)C1CCCCN1 (stereo not shown) [Mefloquine]
P. yoelii EEF; 1 μM
  Median parasite area: 65.4±4.7 μm^2
P. yoelii EEF; 10 μM
  Median parasite area: < 9 μm^2
P. yoelii EEF
  activity against EEFs (in words): marginal activity
  IC50: 3270 nM
[2]
  IC50: 9.5 ± 10 nM
HepG2-A16-CD81EGFP cells
  IC50: 3100 ± 600 nM

## C[C@@H]1CC[C@H]2[C@@H](C)C(=O)O[C@@H]3O[C@@]4(C)CC[C@@H]1[C@]32OO4 [Artemisinin]
P. yoelii EEF
  activity against EEFs (in words): inactive
  IC50: > 10000 nM
[2]
  IC50: 3.3 ± 0.4 nM
HepG2-A16-CD81EGFP cells
  IC50: > 10000 nM

## CO[C@@H]1C(=O)CC[C@]2(CO2)[C@@]1(O)[C@@]1(C)O[C@@H]1CC=C(C)C [Ovalicin]
P. yoelii EEF; 1 μM
  Median parasite area: 35.1±3.1 μm^2
P. yoelii EEF; 10 μM
  Median parasite area: 19.1±0.9 μm^2
P. yoelii EEF; Fig. 1E
  effect on the infection ratio: no drug effect is seen; also recorded: no measurable effect
P. yoelii EEF
  activity against EEFs (in words): confirmed as active
  IC50: 0.7 ± 0.3 nM
[2]
  IC50: > 10000 nM
HepG2-A16-CD81EGFP cells
  IC50: > 10000 nM

## COc1ccc2cc3[n+](cc2c1OC)CCc1cc2c(cc1-3)OCO2 [Berberine]
P. yoelii EEF; 1 μM
  Median parasite area: 46.4±7.0 μm^2
P. yoelii EEF; 10 μM
  Median parasite area: 22.4±2.3 μm^2
P. yoelii EEF
  activity against EEFs (in words): confirmed as active
  IC50: 224 ± 152 nM
[2]
  IC50: 117 ± 9 nM
HepG2-A16-CD81EGFP cells
  IC50: 2600 ± 500 nM

## COc1cc(NC(C)CCCN)c2ncccc2c1 (stereo not shown) [Primaquine]
P. yoelii EEF; 1 μM
  Median parasite area: 56.8±15.6 μm^2
P. yoelii EEF; 10 μM
  Median parasite area: < 9 μm^2
P. yoelii EEF
  activity against EEFs (in words): confirmed as active
  IC50: 1160 nM
[2]
  IC50: 317 ± 60 nM
HepG2-A16-CD81EGFP cells
  IC50: 6100 ± 1900 nM
